# In patent US11180767B2, “Protease deficient filamentous fungal cells and methods of use thereof” (GLYKOS FINLAND OY, priority 2012, dated 2021):
# Non-standard residues stand in square brackets, D forms with d. Residues, ends and D or L forms follow the SMILES beside them. *: point of attachment. Sta = CC(C)C[C@H](N)[C@@H](O)CC(=O)O; Isovaleryl = CC(C)CC(=O)*
# Experiments:
# [1] = test system: rituximab antibody producing strain; assay: Treatment of T. reesei rituximab cultures with inhibitors; assay type: cell-based, Trichoderma reesei; conditions: small shake flasks, inhibitors added daily day 2-5
# Description: The effectiveness of the inhibitors was also tested with the rituximab antibody producing strain, which contains a VALEKR linker sequence and the pep1 deletion. This strain was grown in triplicate, in small flasks both in presence or absence of chymostatin, SBTI, or pepstatin A. The small shake flasks contained 50 ml of TrMM plus lactose (40 g/l), spent grain extract (20 g/l), and buffer with 100 mM PIPPS at pH 5.5. The SBTI inhibitor was added to the culture at final concentrations of either 100 μg/ml or 500 μg/ml. Chymostatin was used at 100 μM, and pepstatin A was used at 10 μM. Each of the three inhibitors was added to the cultures daily on day 2, 3, 4, and 5.
# Growth of the cultures was followed daily by pH from day 2 until day 7. […] In the PIPPS buffered cultures, the pH decreased from an initial pH of 5.5 down to a pH of 4.8 after day 6. With chymostatin and pepstatin A the cultures were monitored up to day 7. On day 7 the average pH for the control bottles was 4.6, while the average pH for chymostatin treated cultures was 4.9, and the average pH of pepstatin A treated cultures was 5.0.
# Culture supernatant samples (30 μl) were also collected on days 3, 4, and 5 for analysis of antibody production. The analysis was performed by immunoblots using an anti-IgG heavy chain antibody AP conjugate (Sigma #A3188) and an anti-light chain antibody AP conjugate (Sigma #A3812). Each antibody was diluted 1:30,000 in TBST. The full length rituximab heavy chain is about 51 kD, the rituximab light chain CHBI fusion is about 100 kD, and the free rituximab light chain is about 28 kD.
# [2] = test system: proteases in supernatant from the 6-fold protease deletion strain M400; assay: Protease stability of proteins spiked into supernatant of the 6-fold protease deletion strain; assay type: biochemical, Trichoderma reesei; conditions: pepstatin A 50 μM; SBTI 0.2 mg/ml; pH 4.2, 20 hours, 37°C
# Description: The protease stability of the model proteins IGF1, hGH, and IFNα2b were analyzed by spiking them into supernatant from the 6-fold protease deletion strain (Δpep1Δtsp1Δslp1Δgap1Δgap2Δpep4) M400. The supernatant was collected from a large shake flask culture CAH15. The undiluted supernatant from the shake flask cultivation CAH15 was incubated with the purified model proteins with and without pepstatin A (50 μM) and SBTI (0.2 mg/ml) inhibitors for 20 hours at 37° C. The 5 day culture supernatant pH was around 4.2. The reaction containing 0.05 μg μl of model protein was sampled after 20 hours. 50 mM sodium citrate pH 4.0 spiked with model proteins (0.05 g 1) was used as a buffer control.
# From each reaction 10 μl was loaded into an 18% SDS PAGE gel and run for 30 minutes at 200 V. The proteins in the gel were then transferred to nitrocellulose for immunoblotting. The nitrocellulose membrane was blocked for 1 hour at room temperature with 5% milk in TBST buffer. The individual blots were probed with their specific primary antibody to detect the appropriate model protein for 1 hour at room temperature on a shaker. The mouse anti-IGF1 antibody (R&D systems #mab291) was used at 2 μg/ml diluted in TBST. The mouse anti-rhGH antibody (Abeam #ab51232) was used at 2 μg/ml diluted in TBST. The mouse anti-IFNα2b antibody (Abeam #ab9386) was used at 1 μg/ml diluted in TBST. After briefly washing the blot membranes with TBST, the secondary antibody was added for 1 hour at room temperature shaking. The secondary goat anti-mouse AP conjugated antibody (Biorad #170-6520) was diluted 1:10,000 in TBST.
# This same spiking experiment as was done with MAB01 to investigate its stability in the 6 protease deletion supernatant with and without inhibitors (FIG. 43). Samples were taken as described above and immunoblotted with an anti-heavy chain AP conjugated antibody (Sigma #A3188). […] There was no obvious benefit having used inhibitors. The antibody was stable in this pH 4.2 supernatant. […]
# aspartic proteases = assay: IgG degradation by pepstatin A affinity purified aspartic proteases; assay type: biochemical, Trichoderma reesei; conditions: 10 μM pepstatin A; pH 5.5, 37°C, 20 hours
# Description: The T. reesei fed batch fermentation supernatant (15 ml) was used to batch bind proteases to the resin in 35 ml of buffer containing 50 mM sodium acetate, 0.2 M NaCl, pH 3.0. The column was washed with the same binding buffer and bound protein was removed with elution buffer (50 mM Tris-HCL, 1 M NaCl, pH 8.5). Fractions of 0.5 ml were collected. In total 42 μg of protease was purified. The peak fraction contained 0.04 μg/μl protein. 30 μl of each fraction was mixed with 6 μl of Laemmli sample buffer containing β-mercaptoethanol. The samples were heated at 95° C. for 5 minutes before being loaded into a 4-15% PAGE gel (BioRad mini-protean TGX precast gel) along with a broad range prestained molecular weight marker (BioRad). The gel was run in SDS PAGE running buffer for 30 minutes at 100 V, and then stained with GelCode (Thermo Scientific) blue stain.
# Protein (0.8 μg) from the peak fraction (F3) was then incubated with IgG (50 μg ml) in sodium citrate buffer (50 mM, pH 5.5) at 37° C. for 20 hours (FIG. 2). The protein was incubated either in the presence or absence of 10 μM pepstatin A. The antibody mixture was combined with Laemmli sample buffer and heated at 95° C. for 5 minutes. These samples were then loaded into a 4-15% PAGE gel (BioRad mini-protean TGX precast gel) along with a broad range prestained molecular weight marker (BioRad). […]
structure (smiles),measurement,setting,value
CC(C)CC(=O)N[C@H](C(=O)N[C@H](C(=O)N[C@@H](CC(C)C)[C@@H](O)CC(=O)N[C@@H](C)C(=O)N[C@@H](CC(C)C)[C@@H](O)CC(=O)O)C(C)C)C(C)C [pepstatin A] (Isovaleryl-VV[Sta]A[Sta]-OH),effect on culture growth (followed by pH),[1],small reduction in growth
same,"stabilisation of hGH, IFNα2b and IGF1 in supernatant",[2],remarkably stabilized
same,IgG degradation by aspartic proteases,aspartic proteases,inhibited
